Some results are limits rather than exact numbers.

T1 sequence (P35968 20-1356): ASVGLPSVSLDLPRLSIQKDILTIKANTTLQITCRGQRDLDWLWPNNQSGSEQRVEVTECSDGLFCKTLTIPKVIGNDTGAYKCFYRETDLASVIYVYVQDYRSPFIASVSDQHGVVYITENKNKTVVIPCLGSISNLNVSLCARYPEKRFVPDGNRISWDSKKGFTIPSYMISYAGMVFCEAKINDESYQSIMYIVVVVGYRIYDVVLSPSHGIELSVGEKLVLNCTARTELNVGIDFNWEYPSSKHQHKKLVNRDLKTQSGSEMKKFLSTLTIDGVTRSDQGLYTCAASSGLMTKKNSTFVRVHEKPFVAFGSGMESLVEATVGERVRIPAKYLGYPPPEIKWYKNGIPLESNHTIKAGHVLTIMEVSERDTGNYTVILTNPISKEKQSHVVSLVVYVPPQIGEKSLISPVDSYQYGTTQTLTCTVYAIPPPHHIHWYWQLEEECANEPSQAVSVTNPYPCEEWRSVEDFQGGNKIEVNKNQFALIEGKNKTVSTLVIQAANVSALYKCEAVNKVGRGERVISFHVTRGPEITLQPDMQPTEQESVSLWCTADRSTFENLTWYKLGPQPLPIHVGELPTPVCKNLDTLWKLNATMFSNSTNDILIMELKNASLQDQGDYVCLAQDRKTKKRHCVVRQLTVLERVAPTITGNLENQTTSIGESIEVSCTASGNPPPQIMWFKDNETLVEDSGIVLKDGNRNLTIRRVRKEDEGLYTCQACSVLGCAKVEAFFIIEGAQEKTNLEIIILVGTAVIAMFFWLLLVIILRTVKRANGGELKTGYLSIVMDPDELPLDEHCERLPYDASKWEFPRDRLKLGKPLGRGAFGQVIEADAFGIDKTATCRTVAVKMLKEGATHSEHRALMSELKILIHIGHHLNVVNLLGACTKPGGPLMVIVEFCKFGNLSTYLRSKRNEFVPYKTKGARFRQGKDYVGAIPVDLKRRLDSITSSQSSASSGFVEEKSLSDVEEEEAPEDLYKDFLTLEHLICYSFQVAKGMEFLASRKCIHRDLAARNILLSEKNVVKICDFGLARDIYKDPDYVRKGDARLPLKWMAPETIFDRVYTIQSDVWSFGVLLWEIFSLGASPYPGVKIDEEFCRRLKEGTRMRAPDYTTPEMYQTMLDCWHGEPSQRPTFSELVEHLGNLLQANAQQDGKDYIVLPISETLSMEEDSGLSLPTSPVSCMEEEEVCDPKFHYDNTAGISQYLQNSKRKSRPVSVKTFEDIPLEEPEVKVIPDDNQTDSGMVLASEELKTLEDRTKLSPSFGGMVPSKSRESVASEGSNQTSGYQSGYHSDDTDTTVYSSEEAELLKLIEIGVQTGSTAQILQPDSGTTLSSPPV

The assay has as its target T1, human KDR (Homo sapiens, UniProt P35968).
T1 construct: expressed in transfected cells; host or cells: NIH 3T3 cells (mouse fibroblasts) stably expressing human KDR
As to the kind of experiment: Inhibitory activity against KDR phosphorylation by ELISA (VEGF-stimulated NIH 3T3 cells expressing human KDR). It counts as cell-based. The conditions noted are these: VEGF 100 ng/ml, compound 1 hr, read-out: IC50 (inhibition of KDR phosphorylation). The protocol:
The harvested cells were inoculated into wells of a collagen-type one-coat 96-well flat-bottom plate, each containing the same medium, in an amount of 1.5×10^4 per well, followed by cultivation at 37° C. overnight. The medium was then replaced by a DMEM medium containing 0.1% fetal calf serum. A solution of a test compound in dimethyl sulfoxide was added to each well, and the cultivation was continued at 37° C. for additional one hr. A human recombinant vascular endothelial growth factor (hereinafter abbreviated to “VEGF”) was added to a final concentration of 100 ng/ml, and the stimulation of cells was carried out at 37° C. for 2 min. The medium was removed, the cells were washed with phosphate buffered saline (pH 7.4), and 50 μl of a solubilization buffer (20 mM HEPES (pH 7.4), 150 mM NaCl, 0.2% Triton X-100, 10% glycerol, 5 mM sodium orthovanadylate, 5 mM disodium ethylenediaminetetraacetate, and 2 mM Na4P2O7) was then added thereto. The mixture was shaken at 4° C. for 2 hr to prepare a cell extract.
Separately, phosphate buffered saline (50 μl, pH 7.4) containing 5 μg/ml of an anti-phospho-tyrosine antibody (PY20; purchased from Transduction Laboratories) was added to a microplate for ELISA (Maxisorp; purchased from NUNC), followed by standing at 4° C. overnight to form a solid phase on the wells. After washing of the plate, 300 μl of a blocking solution was added, followed by standing at room temperature for 2 hr to perform blocking. After washing, the whole quantity of the cell extract was transferred to the wells, and the plate was then allowed to stand at 4° C. overnight. After washing, an anti-KDR antibody (purchased from Santa Cruz) was allowed to react at room temperature for one hr, and, after washing, a peroxidase-labeled anti-rabbit Ig antibody (purchased from Amersham) was allowed to react at room temperature for one hr. After washing, a chromophoric substrate for peroxidase (purchased from Sumitomo Bakelite Co., Ltd.) was added thereto to initiate a reaction. After a suitable level of color development, a reaction termination solution was added to stop the reaction, and the absorbance at 450 nm was measured with a microplate reader. The KDR phosphorylation activity for each well was determined by presuming the absorbance with the addition of VEGF and without the addition of the medicament to be 100% KDR phosphorylation activity and the absorbance without the addition of the medicament and VEGF to be 0% KDR phosphorylation activity.
Take `CCOC(=O)Cc1csc(NC(=O)Nc2ccc(Oc3ccnc4cc(OC)c(OC)cc34)cc2Cl)n1` [Ex. 31, Ethyl 2-{2-[({2-chloro-4-[(6,7-dimethoxy-4-quinolyl)oxy]anilino}carbonyl)amino]-1,3-thiazol-4-yl}acetate]: the concentration for half-maximal inhibition (IC50) worked out at 33.9 nM.
Turning to `COc1cc2nccc(Oc3ccc(NC(=O)Nc4nnc(C5CC5)s4)cc3Cl)c2cc1OC` [Ex. 68, N-{3-Chloro-4-[(6,7-dimethoxy-4-quinolyl)oxy]phenyl}-N′-(5-cyclopropyl-1,3,4-thiadiazol-2-yl)urea], the half-inhibitory concentration (IC50) was determined as 18 nM.
Then `CCc1nnc(NC(=O)Nc2ccc(Oc3ccnc4cc(OC)c(OC)cc34)c(Cl)c2)s1` [Ex. 66, N-{3-Chloro-4-[(6,7-dimethoxy-4-quinolyl)oxy]phenyl}-N′-(5-ethyl-1,3,4-thiadiazol-2-yl)urea], with 3.7 nM; and `CCc1nnc(NC(=O)Nc2ccc(Oc3ccnc4cc(OC)c(OC)cc34)c(C)c2C)s1` [Ex. 62, N-{4-[(6,7-Dimethoxy-4-quinolyl)oxy]-2,3-dimethylphenyl}-N′-(5-ethyl-1,3,4-thiadiazol-2-yl)urea], with 1.5 nM.
Then `COc1cc2nccc(Oc3ccc(NC(=O)Nc4ccn[nH]4)cc3Cl)c2cc1OC` [Ex. 19, N-{3-Chloro-4-[(6,7-dimethoxy-4-quinolyl)oxy]phenyl}-N′-(1H-5-pyrazolyl)urea], with 17.5 nM.
To `COc1cc2nccc(Oc3ccc(NC(=O)Nc4ncc(Cl)s4)c(Cl)c3)c2cc1OC` [Ex. 34, N-{2-Chloro-4-[(6,7-dimethoxy-4-quinolyl)oxy]phenyl}-N′-(5-chloro-1,3-thiazol-2-yl)urea] belongs 2.8 nM; to `COc1cc2ncnc(Oc3ccc(NC(=O)Nc4cc(C)ns4)cc3)c2cc1OC` [Ex. 16, N-{4-[(6,7-Dimethoxy-4-quinazolinyl)oxy]-phenyl}-N′-(3-methyl-5-isothiazolyl)urea], 54.9 nM; to `COc1cc2nccc(Oc3ccc(NC(=O)Nc4ccon4)cc3Cl)c2cc1OC` [Ex. 1, N-{3-Chloro-4-[(6,7-dimethoxy-4-quinolyl)oxy]phenyl}-N′-(3-isoxazolyl)urea], 2.3 nM.
With `CCc1nnc(NC(=O)Nc2ccc(Oc3ccnc4cc(OC)c(OC)cc34)cc2)s1` [Ex. 59, N-{4-[(6,7-Dimethoxy-4-quinolyl)oxy]phenyl}-N′-(5-ethyl-1,3,4-thiadiazol-2-yl)urea], the half-maximal inhibitory concentration (IC50) was 1.3 nM.
Regarding `COc1cc2ncnc(Oc3ccc(NC(=O)Nc4nc(C)cs4)cc3)c2cc1OC` [Ex. 44, N-{4-[(6,7-Dimethoxy-4-quinazolinyl)oxy]-phenyl}-N′-(4-methyl-1,3-thiazol-2-yl)urea], the 50% inhibitory concentration (IC50) worked out at 1.1 nM.
Then `COc1cc2ncnc(Oc3ccc(NC(=O)Nc4cc(C)no4)c(Cl)c3)c2cc1OC` [Ex. 13, N-{2-Chloro-4-[(6,7-dimethoxy-4-quinazolinyl)oxy]phenyl}-N′-(3-methyl-5-isoxazolyl)urea], with 2.2 nM; and `COc1cc2ncnc(Oc3ccc(NC(=O)Nc4ncc(C)s4)cc3)c2cc1OC` [Ex. 43, N-{4-[(6,7-Dimethoxy-4-quinazolinyl)oxy]-phenyl}-N′-(5-methyl-1,3-thiazol-2-yl)urea], with under 1 nM.
In the case of `CCSc1nnc(NC(=O)Nc2ccc(Oc3ccnc4cc(OC)c(OC)cc34)cc2F)s1` [Ex. 70, N-{4-[(6,7-Dimethoxy-4-quinolyl)oxy]-2-fluorophenyl}-N′-[5-(ethylsulfanyl)-1,3,4-thiadiazol-2-yl]urea], the IC50 is 2.2 nM.
Then `CCSc1nnc(NC(=O)Nc2ccc(Oc3ccnc4cc(OC)c(OC)cc34)c(C)c2C)s1` [Ex. 71, N-{4-[(6,7-Dimethoxy-4-quinolyl)oxy]-2,3-dimethylphenyl}-N′-[5-(ethylsulfanyl)-1,3,4-thiadiazol-2-yl]urea], with 3.1 nM.
To `COc1cc2nccc(Oc3ccc(NC(=O)Nc4ncc(Cl)s4)c(F)c3)c2cc1OC` [Ex. 37, N-(5-Chloro-1,3-thiazol-2-yl)-N′-{4-[(6,7-dimethoxy-4-quinolyl)oxy]-2-fluorophenyl}urea] belongs 1.9 nM; to `COc1cc2ncnc(Oc3ccc(NC(=O)Nc4cc(C)ns4)c(Cl)c3)c2cc1OC` [Ex. 17, N-{2-Chloro-4-[(6,7-dimethoxy-4-quinazolinyl)oxy]phenyl}-N′-(3-methyl-5-isothiazolyl)-urea], 4.9 nM.
Then `COc1cc2ncnc(Oc3ccc(NC(=O)Nc4cc(C)no4)cc3)c2cc1OC` [Ex. 11, N-{4-[(6,7-Dimethoxy-4-quinazolinyl)oxy]-phenyl}-N′-(3-methyl-5-isoxazolyl)urea], with 9.3 nM; and `COc1cc2nccc(Oc3ccc(NC(=O)Nc4nnc(C(F)(F)F)s4)cc3Cl)c2cc1OC` [Ex. 73, N-{3-Chloro-4-[(6,7-dimethoxy-4-quinolyl)oxy]phenyl}-N′-[5-(trifluoromethyl)-1,3,4-thiadiazol-2-yl]urea], with 21 nM.
For the compound `COc1cc2ncnc(Oc3ccc(NC(=O)Nc4ncc(C)s4)cc3Cl)c2cc1OC` [Ex. 47, N-{3-Chloro-4-[(6,7-dimethoxy-4-quinazolinyl)oxy]phenyl}-N′-(5-methyl-1,3-thiazol-2-yl)urea], the IC50 stood at 2.8 nM.
To `COc1cc2nccc(Oc3ccc(NC(=O)Nc4nnc(C(C)(C)C)s4)c(C)c3C)c2cc1OC` [Ex. 75, N-[5-(Tert-butyl)-1,3,4-thiadiazol-2-yl]-N′-{4-[(6,7-dimethoxy-4-quinolyl)oxy]-2,3-dimethylphenyl}-urea] belongs 4.5 nM; to `COc1cc2nccc(Oc3ccc(NC(=O)Nc4ncc(Br)s4)c(Cl)c3)c2cc1OC` [Ex. 32, N-(5-Bromo-1,3-thiazol-2-yl)-N′-{2-chloro-4-[(6,7-dimethoxy-4-quinolyl)oxy]phenyl}urea], 3.7 nM; to `COc1cc2nccc(Oc3ccc(NC(=O)Nc4nc(C(C)(C)C)cs4)c(Cl)c3)c2cc1OC` [Ex. 33, N-[4-(Tert-butyl)-1,3-thiazol-2-yl]-N′-{2-chloro-4-[(6,7-dimethoxy-4-quinolyl)oxy]phenyl}urea], 21.1 nM.
To `COc1cc2ncnc(Oc3ccc(NC(=O)Nc4cc(C)ns4)cc3Cl)c2cc1OC` [Ex. 18, N-{3-Chloro-4-[(6,7-dimethoxy-4-quinazolinyl)oxy]phenyl}-N′-(3-methyl-5-isothiazolyl)-urea] belongs 69.7 nM; to `COc1cc2nccc(Oc3ccc(NC(=O)Nc4nnc(C(F)(F)F)s4)c(Cl)c3)c2cc1OC` [Ex. 72, N-{2-Chloro-4-[(6,7-dimethoxy-4-quinolyl)oxy]phenyl}-N′-[5-(trifluoromethyl)-1,3,4-thiadiazol-2-yl]urea], 2.9 nM; to `COc1cc2ncnc(Oc3ccc(NC(=O)Nc4nc(C)c(C)s4)cc3Cl)c2cc1OC` [Ex. 49, N-{3-Chloro-4-[(6,7-dimethoxy-4-quinazolinyl)oxy]phenyl}-N′-(4,5-dimethyl-1,3-thiazol-2-yl)urea], 3.1 nM.
Regarding `COc1cc2ncnc(Oc3ccc(NC(=O)Nc4nccs4)cc3)c2cc1OC` [Ex. 42, N-{4-[(6,7-Dimethoxy-4-quinazolinyl)oxy]-phenyl}-N′-(1,3-thiazol-2-yl)urea], the 50% inhibitory concentration (IC50) is 4.7 nM.
To `COc1cc2ncnc(Oc3ccc(NC(=O)Nc4nccs4)cc3Cl)c2cc1OC` [Ex. 46, N-{3-Chloro-4-[(6,7-dimethoxy-4-quinazolinyl)oxy]phenyl}-N′-(1,3-thiazol-2-yl)urea] belongs 7.4 nM.
Then `COc1cc2nccc(Oc3ccc(NC(=O)Nc4cc(C)no4)cc3Cl)c2cc1OC` [Ex. 2, N-{3-Chloro-4-[(6,7-dimethoxy-4-quinolyl)oxy]phenyl}-N′-(3-methyl-5-isoxazolyl)urea], with 2 nM; and `COc1cc2nccc(Oc3ccc(NC(=O)Nc4nc(C)c(C(C)=O)s4)c(F)c3)c2cc1OC` [Ex. 36, N-(5-Acetyl-4-methyl-1,3-thiazol-2-yl)-N′-{4-[(6,7-dimethoxy-4-quinolyl)oxy]-2-fluorophenyl}urea], with 1.2 nM.
Then `COc1cc2nccc(Oc3ccc(NC(=O)Nc4ccn[nH]4)c(F)c3)c2cc1OC` [Ex. 20, N-{4-[(6,7-Dimethoxy-4-quinolyl)oxy]-2-fluorophenyl}-N′-(1H-5-pyrazolyl)urea], with 4.2 nM.
With `COc1cc2ncnc(Oc3ccc(NC(=O)Nc4cc(C)on4)cc3)c2cc1OC` [Ex. 10, N-{4-[(6,7-Dimethoxy-4-quinazolinyl)oxy]-phenyl}-N′-(5-methyl-3-isoxazolyl)urea], the IC50 turned out to be 3.6 nM.
Then `COc1cc2nccc(Oc3ccc(NC(=O)Nc4ncc(Br)s4)c(F)c3)c2cc1OC` [Ex. 35, N-(5-Bromo-1,3-thiazol-2-yl)-N′-{4-[(6,7-dimethoxy-4-quinolyl)oxy]-2-fluorophenyl}urea], with 1.9 nM.

Source of the values: US7211587B2, “Quinoline derivatives and quinazoline derivatives having azolyl group” (Kirin Beer Kabushiki Kaisha, priority 2001, dated 2007).
